Measured values from patent US6737383B1, “Herbicidal oxadiazolidines” (priority 1999, dated 2004).

What was measured:
[1] = test system: duck salad; test: Test B flood test duck salad; format: in vivo, Heteranthera limosa
Outline: (§1)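 Each value is a visual injury score relative to controls, with 10 meaning complete control and 0 no effect. Evaluation took place twelve to sixteen days after the 2-leaf-stage plants were treated and kept in the greenhouse.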

[2] = test system: wheat; test: Test B pre/postemergence wheat; format: in vivo, Triticum aestivum; settings: for Wheat plant response rating: scale of 0 to 10 where 0 is no effect and 10 is complete control
Outline: (§2)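 Herbicidal effect was estimated by eye on a ten-point control scale after plants spent twelve to sixteen days in a greenhouse following soil or foliar treatment. Foliar sprays targeted plants at one to four leaves; all doses were formulated in a non-phytotoxic solvent with surfactant.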

[3] = test system: soybean; test: Test B pre/postemergence soybean; format: in vivo, Glycine max; settings: for Soybean plant response rating: scale of 0 to 10 where 0 is no effect and 10 is complete control
Outline: as §2

[4] = test system: smallflower flatsedge; test: Test B flood test smallflower flatsedge; format: in vivo, Cyperus difformis
Outline: as §1

[5] = test system: sugar beet; test: Test B pre/postemergence sugar beet; format: in vivo, Beta vulgaris; settings: for Sugarbeets plant response rating: scale of 0 to 10 where 0 is no effect and 10 is complete control
Outline: as §2

[6] = test system: surinam grass; test: Test B pre/postemergence surinam grass; format: in vivo, Brachiaria decumbens
Outline: as §2

[7] = test system: pigweed; test: Test B pre/postemergence pigweed; format: in vivo, Amaranthus retroflexus; settings: for Redroot pigweed plant response rating: scale of 0 to 10 where 0 is no effect and 10 is complete control
Outline: as §2

[8] = test system: purple nutsedge; test: Test B pre/postemergence purple nutsedge; format: in vivo, Cyperus rotundus; settings: for Nutsedge plant response rating: scale of 0 to 10 where 0 is no effect and 10 is complete control
Outline: as §2

[9] = test system: blackgrass; test: Test B pre/postemergence blackgrass; format: in vivo, Alopecurus myosuroides
Outline: as §2

[10] = test system: rice; test: Test B flood test rice; format: in vivo, Oryza sativa
Outline: as §1

[11] = test system: wild oat; test: Test B pre/postemergence wild oat; format: in vivo, Avena fatua; settings: for Wild oats plant response rating: scale of 0 to 10 where 0 is no effect and 10 is complete control
Outline: as §2

[12] = test system: crabgrass; test: Test B pre/postemergence crabgrass; format: in vivo, Digitaria sanguinalis; settings: for Crabgrass plant response rating: scale of 0 to 10 where 0 is no effect and 10 is complete control
Outline: as §2

[13] = test system: bedstraw; test: Test B pre/postemergence bedstraw; format: in vivo, Galium aparine
Outline: as §2

[14] = test system: corn; test: Test B pre/postemergence corn; format: in vivo, Zea mays; settings: for Corn plant response rating: scale of 0 to 10 where 0 is no effect and 10 is complete control
Outline: as §2

[15] = test system: rape; test: Test B pre/postemergence rape; format: in vivo, Brassica napus; settings: for Rape plant response rating: scale of 0 to 10 where 0 is no effect and 10 is complete control
Outline: as §2

[16] = test system: velvetleaf; test: Test B pre/postemergence velvetleaf; format: in vivo, Abutilon theophrasti; settings: for Velvetleaf plant response rating: scale of 0 to 10 where 0 is no effect and 10 is complete control
Outline: as §2

[17] = Postemergence (flood test), Rate 125 g/ha, scale 0 to 10, 0 is no effect, 10 is complete control
[18] = Rate 62 g/ha, Postemergence (flood test species), scale of 0 to 10 where 0 is no effect and 10 is complete control
[19] = Rate 500 g/ha, listed under Postemergence (flood test species), scale 0 to 10, 0 no effect, 10 complete control
[20] = Postemergence, Rate 125 g/ha, scale 0 to 10, 0 is no effect, 10 is complete control
[21] = Preemergence, Rate 62 g/ha, scale 0 to 10 (0 no effect, 10 complete control)
[22] = Rate 500 g/ha, Postemergence, scale 0 to 10, 0 no effect, 10 complete control
[23] = Preemergence, Rate 250 g/ha, scale of 0 to 10 where 0 is no effect and 10 is complete control
[24] = Preemergence, Rate 500 g/ha, scale of 0 to 10 where 0 is no effect and 10 is complete control
[25] = Rate 62 g/ha, Postemergence, scale of 0 to 10 where 0 is no effect and 10 is complete control
[26] = Rate 250 g/ha, Postemergence, scale of 0 to 10 where 0 is no effect and 10 is complete control

COCC(C)n1c(=O)on(C(=O)N(c2ccc(F)cc2F)C(C)C)c1=O (stereo not shown) [Compound 352]
Plant response rating, Ducksalad [1, 17]: 0 | Ducksalad plant response rating [1, 18]: 0 | Plant response rating, Ducksalad [1, 19]: 2 | Plant response rating, Wheat [2, 20]: 3 | Plant response rating, Wheat [2, 21]: 0 | Wheat plant response rating (0 to 10 scale) ([2]; Preemergence, Rate 125 g/ha): 0 | Wheat plant response rating ([2]; Preemergence, Rate 250 g/ha): 2 | Wheat plant response rating ([2]; Preemergence, Rate 500 g/ha): 6 | Wheat plant response rating ([2]; Rate 62 g/ha, Postemergence): 0 | Plant response rating, Wheat [2, 22]: 7 | Plant response rating, Soybean [3, 20]: 2 | Plant response rating, Soybean [3, 21]: 0 | Soybean plant response rating (0 to 10 scale) ([3]; Preemergence, Rate 125 g/ha): 0 | Soybean plant response rating ([3]; Preemergence, Rate 250 g/ha): 0 | Soybean plant response rating ([3]; Preemergence, Rate 500 g/ha): 2 | Soybean plant response rating ([3]; Rate 62 g/ha, Postemergence): 2 | Plant response rating, Soybean [3, 22]: 4 | Plant response rating, S. Flatsedge [4, 17]: 7 | S. Flatsedge plant response rating [4, 18]: 2 | Plant response rating, S. Flatsedge [4, 19]: 7 | Plant response rating, Sugarbeets [5, 20]: 0 | Plant response rating, Sugarbeets [5, 21]: 2 | Sugarbeets plant response rating (0 to 10 scale) ([5]; Preemergence, Rate 125 g/ha): 3 | Sugarbeets plant response rating ([5]; Preemergence, Rate 250 g/ha): 3 | Sugarbeets plant response rating ([5]; Preemergence, Rate 500 g/ha): 7 | Sugarbeets plant response rating ([5]; Rate 62 g/ha, Postemergence): 0 | Plant response rating, Sugarbeets [5, 22]: 0 | Plant response rating, B. signalgrass [6, 20]: 2 | Plant response rating, B. signalgrass [6, 21]: 2 | B. signalgrass plant response rating (0 to 10 scale, 0 is no effect, 10 is complete control) ([6]; Preemergence, Rate 125 g/ha): 6 | B. signalgrass plant response rating [6, 23]: 7 | B. signalgrass plant response rating [6, 24]: 7 | B. signalgrass plant response rating [6, 25]: 0 | Plant response rating, B. signalgrass [6, 26]: 7 | Plant response rating, B. signalgrass [6, 22]: 7 | Plant response rating, Redroot pigweed [7, 20]: 3 | Redroot pigweed plant response rating (0 to 10 scale) ([7]; Preemergence, Rate 125 g/ha): 3 | Redroot pigweed plant response rating ([7]; Preemergence, Rate 250 g/ha): 10 | Redroot pigweed plant response rating ([7]; Preemergence, Rate 500 g/ha): 10 | Redroot pigweed plant response rating ([7]; Rate 62 g/ha, Postemergence): 0 | Plant response rating, Redroot pigweed [7, 22]: 4 | Plant response rating, Nutsedge [8, 20]: 0 | Plant response rating, Nutsedge [8, 21]: 0 | Nutsedge plant response rating (0 to 10 scale) ([8]; Preemergence, Rate 125 g/ha): 0 | Nutsedge plant response rating ([8]; Preemergence, Rate 250 g/ha): 0 | Nutsedge plant response rating ([8]; Preemergence, Rate 500 g/ha): 0 | Nutsedge plant response rating ([8]; Rate 62 g/ha, Postemergence): 0 | Plant response rating, Nutsedge [8, 22]: 2 | Plant response rating, Blackgrass [9, 20]: 8 | Plant response rating, Blackgrass [9, 21]: 9 | Blackgrass plant response rating (0 to 10 scale) ([9]; Preemergence, Rate 125 g/ha): 10 | Blackgrass plant response rating [9, 23]: 10 | Blackgrass plant response rating [9, 24]: 10 | Blackgrass plant response rating [9, 25]: 8 | Plant response rating, Blackgrass [9, 26]: 8 | Plant response rating, Blackgrass [9, 22]: 8 | Plant response rating, Rice [10, 17]: 3 | Rice plant response rating [10, 18]: 0 | Plant response rating, Rice [10, 19]: 3 | Plant response rating, Wild oats [11, 20]: 0 | Plant response rating, Wild oats [11, 21]: 8 | Wild oats plant response rating (0 to 10 scale) ([11]; Preemergence, Rate 125 g/ha): 8 | Wild oats plant response rating ([11]; Preemergence, Rate 250 g/ha): 9 | Wild oats plant response rating ([11]; Preemergence, Rate 500 g/ha): 10 | Wild oats plant response rating ([11]; Rate 62 g/ha, Postemergence): 0 | Plant response rating, Wild oats [11, 22]: 7 | Plant response rating, Crabgrass [12, 20]: 3 | Plant response rating, Crabgrass [12, 21]: 9 | Crabgrass plant response rating (0 to 10 scale) ([12]; Preemergence, Rate 125 g/ha): 10 | Crabgrass plant response rating ([12]; Preemergence, Rate 250 g/ha): 10 | Crabgrass plant response rating ([12]; Preemergence, Rate 500 g/ha): 10 | Crabgrass plant response rating ([12]; Rate 62 g/ha, Postemergence): 1 | Plant response rating, Crabgrass [12, 22]: 4 | Plant response rating, Bedstraw [13, 20]: 0 | Plant response rating, Bedstraw [13, 21]: 0 | Bedstraw plant response rating (0 to 10 scale) ([13]; Preemergence, Rate 125 g/ha): 0 | Bedstraw plant response rating [13, 25]: 0 | Plant response rating, Bedstraw [13, 26]: 2 | Plant response rating, Bedstraw [13, 22]: 4 | Plant response rating, Corn [14, 20]: 0 | Plant response rating, Corn [14, 21]: 0 | Corn plant response rating (0 to 10 scale) ([14]; Preemergence, Rate 125 g/ha): 5 | Corn plant response rating ([14]; Preemergence, Rate 250 g/ha): 6 | Corn plant response rating ([14]; Preemergence, Rate 500 g/ha): 9 | Corn plant response rating ([14]; Rate 62 g/ha, Postemergence): 0 | Plant response rating, Corn [14, 22]: 6 | Plant response rating, Rape [15, 20]: 0 | Plant response rating, Rape [15, 21]: 0 | Rape plant response rating (0 to 10 scale) ([15]; Preemergence, Rate 125 g/ha): 0 | Rape plant response rating ([15]; Preemergence, Rate 250 g/ha): 0 | Rape plant response rating ([15]; Preemergence, Rate 500 g/ha): 7 | Rape plant response rating ([15]; Rate 62 g/ha, Postemergence): 0 | Plant response rating, Rape [15, 22]: 0 | Plant response rating, Velvetleaf [16, 20]: 0 | Plant response rating, Velvetleaf [16, 21]: 2 | Velvetleaf plant response rating (0 to 10 scale) ([16]; Preemergence, Rate 125 g/ha): 4 | Velvetleaf plant response rating ([16]; Preemergence, Rate 250 g/ha): 6 | Velvetleaf plant response rating ([16]; Preemergence, Rate 500 g/ha): 7 | Velvetleaf plant response rating ([16]; Rate 62 g/ha, Postemergence): 0 | Plant response rating, Velvetleaf [16, 22]: 3
